{"source": "patent US20050079594A1", "about": "“Method of removing a biofilm” (Karine Marion, priority 2002, published 2005)", "molecules": {"B1": {"name": "Thermolys: enzyme, Sigma (protein, UniProt P00800 233-548, looked up)", "Thermolysin": "ITGTSTVGVGRGVLGDQKNINTTYSTYYYLQDNTRGNGIFTYDAKYRTTLPGSLWADADNQFFASYDAPAVDAHYYAGVTYDYYKNVHNRLSYDGNNAAIRSSVHYSQGYNNAFWNGSQMVYGDGDGQTFIPLSGGIDVVAHELTHAVTDYTAGLIYQNESGAINEAISDIFGTLVEFYANKNPDWEIGEDVYTPGISGDSLRSMSDPAKYGDPDHYSKRYTGTQDNGGVHINSGIINKAAYLISQGGTHYGVSVVGIGRDKLGKIFYRALTQYLTPTSNFSQLRAAAVQSATDLYGSTSQEVASVKQAFDAVGVK"}}, "key": {"[1]": {"system": "biofilm 1", "test": "Area covered by biofilm 1 (staining, image analysis)", "format": "cell-based", "protocol": "The method was tested and implemented experimentally on five types of biofilm; biofilms 1, 2, 3 and 5 were obtained using an in vitro model that mimics the hemodialysis generator: • biofilm 1: enriched with nutrients for accelerated growth (3 days) moderate thickness (about 10^5 CFU/cm^2), very rich in slime; • biofilm 2: not enriched with nutrients having grown over 1 month, equivalent to those actually encountered in dialysis generators (about 10^3 CFU/cm^2) very rich in scale crystals; • biofilm 3: enriched with nutrients for accelerated growth (5 days), thick (about 10^9 CFU/cm^2) very rich in slime; • biofilm 4: specimen of tubing conveying water for hemodialysis, taken from a center, covered with a biofilm of about 10^3 CFU/cm^2 but having grown over more than one year; and • biofilm 5: enriched with nutrients for accelerated growth, having grown in a “preventive” model over three weeks. Production of the In Vitro Model\nA 250 ml reactor vessel was filled with a nonsterile dialysate, prepared by diluting sterile apyrogenic hemodialysis concentrates (Clearflex® from Bieffe Medical) with nonsterile osmosed water containing Pseudomonas putida, Pseudomonas fluorescens and Flavimonas orizibitans, produced continuously in the laboratory.\nThe contaminating medium was circulated in a closed circuit in a loop of silicon tubing 1.5 meters in length and 5 mm inside diameter with a flow rate of 500 ml/min by a peristaltique pump. All the tubing and the reactor vessel were sterilized beforehand in an autoclave at 121° C. for 30 minutes. Thus, the dialysate naturally contaminated by the bacteria in the water was the only source of microorganisms.\nThe entire system was maintained at a temperature of 37° C. by a hotplate on which the reactor vessel was placed.\nIn the case of biofilms 1, 3 and 5, the bacterial growth and consequently the development of the biofilm were accelerated by adding an LB culture medium diluted 50-fold, i.e. an LB culture medium diluted to […] and topped up with a flow equal to 1/10th of that of the dialysate. The dialysate and culture medium top-up flow rates, regulated by a peristaltic pump, were 5 and 0.5 ml/minute, respectively.\nThe tubings covered with biofilms 1, 2 and 3 were cut into segments 5 cm in length. For screening on biofilms 1 and 2, each segment for undergoing one of the various treatments to be investigated was selected by drawing lots. Control specimens taken at random from the silicon loop were kept untreated.\nThe tubing segments to be treated were attached to the descending branch of a set-up consisting of two tubings—one ascending and the other descending, a peristaltic pump and a water bath (for treatments carried out a temperature above 20° C.). The product to be tested in “recirculation” mode was dissolved in a 100 ml flask and driven by the peristaltic pump at a rate of 500 ml/min in a closed circuit through the tubings for a duration corresponding to the contact times given in table II. The product to be tested in “static” mode was dissolved in a 100 ml flask and driven by the peristaltic pump until the tubings had been filled; the pump was then stopped and the product left in stasis for the desired contact time. After each treatment by a given product, the tubing specimens were rinsed for five minutes with osmosed water.\nThe control and treated biofilms were stained: • either with a 0.25% crystal violet solution; • or with a Baclight® fluorochrome solution (Syto 9 and propidium iodide). The viable bacteria show up green while the dead bacteria show up yellow or red.\nThe silicon tubing specimens covered with stained biofilms were attached to glass slides and observed under an optical microscope, the microscope being connected to a camera and to “Scion Images” image analysis software. […]"}, "[2]": {"system": "biofilm 2", "test": "Area covered by biofilm 2 (staining, image analysis)", "format": "cell-based", "settings": "Treat. No. 7, 3%, 37 °C, 5 min, Recirc", "protocol": "The method was tested and implemented experimentally on five types of biofilm; biofilms 1, 2, 3 and 5 were obtained using an in vitro model that mimics the hemodialysis generator: • biofilm 1: enriched with nutrients for accelerated growth (3 days) moderate thickness (about 10^5 CFU/cm^2), very rich in slime; • biofilm 2: not enriched with nutrients having grown over 1 month, equivalent to those actually encountered in dialysis generators (about 10^3 CFU/cm^2) very rich in scale crystals; • biofilm 3: enriched with nutrients for accelerated growth (5 days), thick (about 10^9 CFU/cm^2) very rich in slime; • biofilm 4: specimen of tubing conveying water for hemodialysis, taken from a center, covered with a biofilm of about 10^3 CFU/cm^2 but having grown over more than one year; and • biofilm 5: enriched with nutrients for accelerated growth, having grown in a “preventive” model over three weeks. […] Thus, several (6 to 10) photographs of the same specimen were taken, the stained area was evaluated quantitatively by the image analysis software and a mean covered area value per specimen was calculated. This mean value was compared with the covered area of the untreated control specimens: a percentage reduction in covered area was then calculated."}}, "data": [{"molecule": "O=C(O)C(Cl)(Cl)Cl", "note": "[TCA, Trichloroacetic acid]", "values": [{"measurement": "Result (removal; % covered area reduction)", "setting": "[1]; Treat. No. 14, 0.25%, RT, 40 min, Stat", "result": ". (No removal 0)"}]}, {"molecule": "Trypsin", "values": [{"measurement": "Result (removal; % covered area reduction)", "setting": "[1]; Treat. No. 6, EDTA IX, RT, 40 min, Stat", "result": ". (No removal 0)"}, {"measurement": "Result (removal; % covered area reduction)", "setting": "[1]; Treat. No. 7, 0.25%, 37 °C, 40 min, Stat", "result": "** (Moderate removal 25-50%)"}, {"measurement": "Result (removal; % covered area reduction)", "setting": "[1]; Treat. No. 29, 0.25%, 37 °C, 40 min, Recirc", "result": ". (No removal 0)"}, {"measurement": "Result (removal; % covered area reduction)", "setting": "[1]; Treat. No. 37, 1%, 37 °C, 40 min, Recirc", "result": "* (Poor removal 0-25%)"}]}, {"molecule": "[O-][Cl+3]([O-])([O-])O", "note": "[Perchlo ac, Perchloric acid]", "values": [{"measurement": "Result (removal; % covered area reduction)", "setting": "[1]; Treat. No. 11, 0.05%, RT, 40 min, Stat", "result": ". (No removal 0)"}]}, {"molecule": "[Na+].[OH-]", "note": "[NaOH]", "values": [{"measurement": "Result (removal; % covered area reduction)", "setting": "[1]; Treat. No. 12, 0.01N, RT, 40 min, Stat", "result": "* (Poor removal 0-25%)"}]}, {"molecule": "O=C(O)CC(O)(CC(=O)O)C(=O)O", "note": "[Citric acid]", "values": [{"measurement": "Result (removal; % covered area reduction)", "setting": "[1]; Treat. No. 26, 3%, RT, 40 min, Recirc", "result": ". (No removal 0)"}, {"measurement": "Result (removal; % covered area reduction)", "setting": "[2]", "result": "**** (Excellent removal 75-99%)"}]}, {"molecule": "CCCCCCCCCCCCOS(=O)(=O)[O-].[Na+]", "note": "[SDS, Sodium dodecyl sulfate]", "values": [{"measurement": "Result (removal; % covered area reduction)", "setting": "[1]; Treat. No. 1, 5%, RT, 40 min, Stat", "result": "** (Moderate removal 25-50%)"}, {"measurement": "Result (removal; % covered area reduction)", "setting": "[1]; Treat. No. 8, 5%, RT, 40 min, Recirc", "result": "*/."}]}, {"molecule": "[K+].[OH-]", "note": "[KOH]", "values": [{"measurement": "Result (removal; % covered area reduction)", "setting": "[1]; Treat. No. 13, 0.02N, RT, 40 min, Stat", "result": "** (Moderate removal 25-50%)"}, {"measurement": "Result (removal; % covered area reduction)", "setting": "[1]; Treat. No. 15, 0.02N, RT, 40 min, Recirc", "result": "** (Moderate removal 25-50%)"}, {"measurement": "Result (removal; % covered area reduction)", "setting": "[1]; Treat. No. 21, 0.02N, RT, 1 h, Recirc", "result": "*** (Good removal 50-75%)"}, {"measurement": "Result (removal; % covered area reduction)", "setting": "[1]; Treat. No. 22, 0.02N, RT, 24 h, Recirc", "result": "**** (Excellent removal 75-99%)"}, {"measurement": "Result (removal; % covered area reduction)", "setting": "[1]; Treat. No. 27, 0.002N, RT, 40 min, Recirc", "result": "** (Moderate removal 25-50%)"}, {"measurement": "Result (removal; % covered area reduction)", "setting": "[1]; Treat. No. 35, 0.001N, RT, 40 min, Recirc", "result": "** (Moderate removal 25-50%)"}]}, {"molecule": "Triton", "values": [{"measurement": "Result (removal; % covered area reduction)", "setting": "[1]; Treat. No. 2, 5%, RT, 40 min, Stat", "result": "* (Poor removal 0-25%)"}, {"measurement": "Result (removal; % covered area reduction)", "setting": "[1]; Treat. No. 16, 5%, RT, 40 min, Recirc", "result": ". (No removal 0)"}]}, {"molecule": "B1", "values": [{"measurement": "Result (removal; % covered area reduction)", "setting": "[1]; Treat. No. 33, 2 mg/50 ml, 37 °C, 40 min, Recirc", "result": "** (Moderate removal 25-50%)"}]}]}
